From PMC8387461, “T cell receptor recognition of hybrid insulin peptides bound to HLA-DQ8” (Nature Communications, 2021)

Columns and labels:
HLA-DQ8 [1] = conditions: cited from earlier work
From the text: (§1) Yang et al.[39] described a TRBV5-1^+ HLA-DQ8 restricted T cell clone isolated by insulin B:9-23 peptide (B:9-23 […]) tetramer staining. […] The set of mutations comprised P1AtoE, P6CtoA and P9RtoE and P11FtoC ([…]; mutated residues in italics, P1-P9 register in bold)[22],[24],[39]. This engineered epitope was used as a model put forw ...

T1D3 T cell clone = conditions: cited from earlier work
From the text: as §1

HLA-DQ8 [2] = test: Size exclusion chromatography, aggregate versus monomer of HLA-DQ8-peptide; format: physicochemical, human; conditions: SEC, data not shown
From the text: The proinsulin C-peptide epitope (PI40-54 […]; predicted binding register in bold) lacks both a preferred acidic residue at P9 and aliphatic residue at P4, whereas HIP ([…]) lacks the preferred P4 residue. […] To overcome this, as undertaken previously with a modified B:11-23 peptide and HLA-DQ8[22], we engineered a construct with a disulfide bond between p11 of the HIP peptide or proinsulin C-peptide and HLA-DQ8α I72C to produce HLA-DQ8αΙ72C-CpepL11C (HLA-DQ8-CpepL11C; […]; predicted binding register in bold, P11Cys in italics) and HLA-DQ8αΙ72C-HIPL11C (HLA-DQ8-HIPL11C; […]; predicted binding register in bold, proinsulin C-peptide derived underlined, IAPP2 derived bold italics and P11Cys italics).

T cells = conditions: HIP from MHC-II peptidome of pancreatic islets and lymph nodes of NOD mice; cited from earlier work
CD4+ T cell clone A1.9 = test: T cell stimulation assay, IFNγ ELISA, clone A1.9; format: cell-based, human; conditions: primary clone A1.9, APC EBV-KJ, 24 h, 31-mer C-peptide versus 15mer HIP titration
Description: Fig. 2 Comparison of the stimulatory capacity of full-length proinsulin C-peptide and HIP on T1D CD4 + T cell clones. […] Titration of full-length 31-mer C-peptide ([…], (open circles) and 15mer C-peptide-IAPP2 HIP ([…] (filled circles). Antigen presenting cells (APC) were the EBV line, EBV-KJ, (2 × 10^4 cells/well). APC were cultured for 24 h with the same number (2 × 10^4 cells/well) of the primary CD4 + T-cell clone and the peptide concentration indicated. T-cell response to peptide were indicated by secretion of IFNγ which was measured in triplicate by ELISA and reported as pg/ml. Mean and standard deviations of triplicate IFNγ measurements are shown. Results are representative of two experiments for each clone.
For primary T1D CD4+ T cell clones, cells were thawed and used directly in functional assays. For T cell stimulation assays, cloned CD4+ T cells were incubated with BLCL KJ (; HLA-DQ8 + : HLA-DQA1*03:01, HLA-DQB1*03:02), as APCs, together with synthetic peptides. For the alanine scan experiments, each peptide was added to a final concentration of 10 μM. T cell response to antigen was measured as interferon gamma (IFNγ) secretion into the culture media. The IFNγ concentration in the culture media was determined by ELISA (Biolegend).
Supplementary Figure 8. […]
type) at each position P-3 to P12 are shown. IFNγ was measured in triplicate by ELISA, concentrations are shown in pg/ml. […]

SHLVEALYLVCGERG [B:9-23]
affinity for HLA-DQ8 (HLA-DQ8 [1]): poor affinity | reactivity of / recognition by TRBV5-1+ T1D3 (T1D3 T cell clone): low reactivity

GQVELGGGPGAGSLQ [PI40-54, reference compound]
stability of HLA-DQ8 complex (ratio of aggregate versus monomer) (HLA-DQ8 [2]): unstable HLA-DQ8 binary complexes

LQTLAL–NAARD [proinsulin C-peptide-IAPP2 HIP from NOD mice]
T cell autoreactivity (T cells): had T cell autoreactivity

EAEDLQVGQVELGGGPGAGSLQPLALEGSLQ [proinsulin C-peptide, full-length 31-mer proinsulin C-peptide, reference compound]
response of clone to HIP versus proinsulin C-peptide (CD4+ T cell clone A1.9): responds equally to proinsulin C-peptide or HIP

LVEELYLVAGEEGC [engineered insulin B:9-23 peptide]
reactivity of / recognition by TRBV5-1+ T1D3 (T1D3 T cell clone): recognised by the TRBV5-1^+ T1D3 TCR
